From PMC9513972, “Carboxypeptidase G and pterin deaminase metabolic pathways degrade folic acid in Variovorax sp. F1” (BMC Microbiology, 2022)

Test system: T1, recombinant PDA (rPDA) from Variovorax sp. F1
T1 construct: full-length gene product, 399 residues; 45 kDa band; pET28a NdeI/XhoI (N-terminal His tag), E. coli BL21 (DE3), HisTrap
Assay: HPLC initial velocity, Michaelis-Menten fit
Assay type: biochemical
Settings: 50 mM Tris-HCl pH 7.5, 30 °C
Text: HPLC initial velocity, Michaelis-Menten fit on recombinant PDA (rPDA) from Variovorax sp.

Km (deamination to deaminopteroic acid) [µM] | Km (deamination to deaminofolic acid) [µM] | SMILES
1500 ± 600 |  | Nc1nc2ncc(CNc3ccc(C(=O)O)cc3)nc2c(=O)[nH]1 [pteroic acid]
 | 280 ± 60 | Nc1nc2ncc(CNc3ccc(C(=O)N[C@@H](CCC(=O)O)C(=O)O)cc3)nc2c(=O)[nH]1 [folic acid]
